Reference: US20240336624A1, “PARP INHIBITOR CONTAINING PIPERAZINE STRUCTURE, PREPARATION METHOD THEREFOR AND PHARMACEUTICAL USE THEREOF” (WIGEN BIOMEDICINE TECHNOLOGY (SHANGHAI) CO., LTD., priority 2021, published 2024)

What follows are compounds tested against PARP-1 enzyme (Homo sapiens, UniProt P09874) (assay: In vitro inhibition of activity of poly (ADP-ribose) polymerase [PARP-1 enzyme], histone-coated plate chemiluminescence). Settings: class symbols; read-out: Inhibitory activity against PARP-1 (IC50).
Assay type: biochemical
Experimental: Example 69. Experiment on In Vitro Inhibition of Activity of Poly (ADP-Ribose) Polymerase [PARP-1 Enzyme] with Compounds of the Present Invention
The histones were coated onto 384-well plates at 4° C. overnight, rinsed three times with a PBST buffer, and blocked at room temperature for 1 h. After 1 h, the histones were rinsed three more times with PBST, DMSO or a serially diluted compound, and a mixture containing PARP-1 enzymes and DNA was added, and the resulting mixture was incubated at 25° C. for 10 min. After 10 min NAD^+ was added to start the reaction. After reacting at room temperature for 60 min, the reaction solution was rinsed three times with PBST, and the level of poly/mono-ADP ribose on the histones was detected by the addition of a poly/mono-ADP ribose antibody conjugated with horseradish peroxidase ([…]). After incubation at room temperature for 1 h, HRP substrates ECL A and B were added, and Envision quantified chemiluminescence. The inhibition percentages and IC50 of the compounds were calculated compared to the control group DMSO.

PARP-1 enzyme, sequence (P09874 whole entry): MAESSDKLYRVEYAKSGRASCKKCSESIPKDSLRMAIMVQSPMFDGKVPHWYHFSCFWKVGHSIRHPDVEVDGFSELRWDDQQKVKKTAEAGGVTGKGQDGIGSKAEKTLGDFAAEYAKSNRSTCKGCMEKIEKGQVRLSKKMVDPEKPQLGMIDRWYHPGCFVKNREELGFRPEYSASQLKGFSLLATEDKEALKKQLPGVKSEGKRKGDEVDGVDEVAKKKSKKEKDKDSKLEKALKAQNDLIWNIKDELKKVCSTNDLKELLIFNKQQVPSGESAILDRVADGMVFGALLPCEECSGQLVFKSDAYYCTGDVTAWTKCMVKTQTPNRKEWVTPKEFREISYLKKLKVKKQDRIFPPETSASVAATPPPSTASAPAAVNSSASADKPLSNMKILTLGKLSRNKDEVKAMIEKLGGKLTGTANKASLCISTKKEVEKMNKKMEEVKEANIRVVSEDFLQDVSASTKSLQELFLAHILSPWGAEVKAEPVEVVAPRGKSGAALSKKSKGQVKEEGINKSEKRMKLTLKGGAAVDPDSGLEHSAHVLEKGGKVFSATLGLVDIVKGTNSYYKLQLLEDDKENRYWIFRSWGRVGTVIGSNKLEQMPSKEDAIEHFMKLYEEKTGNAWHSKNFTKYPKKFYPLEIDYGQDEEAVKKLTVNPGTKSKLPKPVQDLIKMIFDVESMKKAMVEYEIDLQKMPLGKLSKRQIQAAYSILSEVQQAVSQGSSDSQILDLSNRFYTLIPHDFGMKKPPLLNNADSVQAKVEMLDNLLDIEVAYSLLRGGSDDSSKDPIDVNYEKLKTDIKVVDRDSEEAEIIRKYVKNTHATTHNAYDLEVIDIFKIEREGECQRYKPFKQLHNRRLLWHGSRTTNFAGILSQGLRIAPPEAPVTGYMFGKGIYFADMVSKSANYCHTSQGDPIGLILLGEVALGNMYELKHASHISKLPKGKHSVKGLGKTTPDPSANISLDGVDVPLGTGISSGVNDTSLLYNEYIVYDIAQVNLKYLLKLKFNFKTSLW

CCc1cc2ncc(CN3CCN(c4cnc(C(=O)NC)nc4)CC3)cc2[nH]c1=O [Compound 2] and CCc1cc2ncc(CN3CCN(c4cnc(C(=O)NC5CC5)nc4)CC3)cc2[nH]c1=O [Compound 32] cannot be ordered by IC50: ≤ 10 nM for the first, 10 to 50 nM for the second.

CCc1cc2ncc(C(C)N3CCN(c4ccc(C(=O)NC)nc4)CC3)cc2[nH]c1=O (stereo not drawn) [Compound 3] and CCc1cc2ncc(C(C)N3CCN(c4ccc(C(=O)NC5CC5)nc4)CC3)cc2[nH]c1=O (stereo not drawn) [Compound 10] cannot be ordered by IC50: ≤ 10 nM for the first, 10 to 50 nM for the second.

CCc1nc2ccc(CN3CCN(c4ccc(C(=O)NC)nc4)CC3)nc2[nH]c1=O [Compound 4] and CCc1nc2ccc(CN3CCN(c4ccc(C(=O)NC5CC5)nc4)CC3)nc2[nH]c1=O [Compound 46] cannot be ordered by IC50: ≤ 10 nM for the first, ≤ 10 nM for the second.

Going from CCc1cc2ncc(CN3CCN(c4ccc(C(=O)NC5CCC5)nc4)CC3)cc2[nH]c1=O [Compound 6] to CCc1cc2ncc(CN3CCN(c4ccc(C(=O)NC5CC(F)C5)nc4)CC3)cc2[nH]c1=O (stereo not drawn) [Compound 12], the IC50 falls from > 50 nM to ≤ 10 nM. The second is the more potent here.

CCc1cc2ncc(CN3CCN(c4ccc(C(=O)NC5CC5)nc4F)CC3)cc2[nH]c1=O [Compound 7] and CCc1cc2ncc(CN3CCN(c4ccc(C(=O)NC5CC5)nc4C)CC3)cc2[nH]c1=O [Compound 8] fall in the same range of IC50: 10 to 50 nM for the first, 10 to 50 nM for the second.

CCc1cc2ncc(CN3CCN(c4ccc(C(=O)NC5CC5)nc4C(F)F)CC3)cc2[nH]c1=O [Compound 9] and CCc1cc2ncc(CN3CCN(c4cnc(C(=O)NC5CC5)nc4C(F)F)CC3)cc2[nH]c1=O [Compound 34] cannot be ordered by IC50: 10 to 50 nM for the first, ≤ 10 nM for the second.

CCc1cc2ncc(CN3CCN(c4ccc(C(=O)NC5CC5F)nc4)CC3)cc2[nH]c1=O (stereo not drawn) [Compound 11] and CCc1cc2ncc(CN3CCN(c4ccc(C(=O)NC5CC5F)nn4)CC3)cc2[nH]c1=O (stereo not drawn) [Compound 37] cannot be ordered by IC50: ≤ 10 nM for the first, 10 to 50 nM for the second.

CCc1cc2ncc(CN3CCN(c4ccc(C(=O)NC5CC(F)(F)C5)nc4)CC3)cc2[nH]c1=O [Compound 13] and CCc1cc2ncc(CN3CCN(c4cnc(C(=O)NC5CC(F)(F)C5)nc4)CC3)cc2[nH]c1=O [Compound 39] cannot be ordered by IC50: ≤ 10 nM for the first, 10 to 50 nM for the second.

CCc1nc2ccc(CN3CCN(c4ccc(C(=O)NC5CC5)nc4)CC3)cc2[nH]c1=O [Compound 14] and CCc1nc2ccc(CN3CCN(c4ccc(C(=O)NC5CCC5)nc4)CC3)cc2[nH]c1=O [Compound 15] cannot be ordered by IC50: ≤ 10 nM for the first, ≤ 10 nM for the second.

O=C(NC1CC1)c1ccc(N2CCN(Cc3ccc4nc(CCF)c(=O)[nH]c4c3)CC2)cn1 [Compound 16] and O=C(NC1CC1)c1ccc(N2CCN(Cc3ccc4nc(CC(F)F)c(=O)[nH]c4c3)CC2)cn1 [Compound 17] cannot be ordered by IC50: ≤ 10 nM for the first, ≤ 10 nM for the second.

CCc1nc2ccc(CN3CCN(c4ccc(C(=O)NC5CC5)nc4F)CC3)cc2[nH]c1=O [Compound 18] and CCc1nc2ccc(CN3CCN(c4ccc(C(=O)NC5CC5)nc4C)CC3)cc2[nH]c1=O [Compound 25] cannot be ordered by IC50: ≤ 10 nM for the first, ≤ 10 nM for the second.

CCc1nc2ccc(C(C)N3CCN(c4ccc(C(=O)NC5CC5)nc4)CC3)cc2[nH]c1=O (stereo not drawn) [Compound 19] and CCc1cc2ncc(C(C)N3CCN(c4ccc(C(=O)NC5CC5)nc4)CC3)cc2[nH]c1=O (stereo not drawn) [Compound 42] cannot be ordered by IC50: ≤ 10 nM for the first, 10 to 50 nM for the second.

CCc1nc2ccc(CN3CCN(c4ccc(C(=O)NC5CC(F)C5)nc4)CC3)cc2[nH]c1=O (stereo not drawn) [Compound 21] and CCc1nc2ccc(CN3CCN(c4ccc(C(=O)NC5CC(F)(F)C5)nc4)CC3)cc2[nH]c1=O [Compound 22] cannot be ordered by IC50: ≤ 10 nM for the first, ≤ 10 nM for the second.

CCc1nc(C(=O)NC2CC2)ccc1N1CCN(Cc2ccc3nc(CC)c(=O)[nH]c3c2)CC1 [Compound 23] and CCc1nc2ccc(CN3CCN(c4ccc(C(=O)NC5CC5)nc4C(F)F)CC3)cc2[nH]c1=O [Compound 24] cannot be ordered by IC50: ≤ 10 nM for the first, ≤ 10 nM for the second.

CCc1nc2ncc(CN3CCN(c4ccc(C(=O)NC5CC5)nc4)CC3)cc2[nH]c1=O [Compound 26] and O=C(NC1CC1)c1ccc(N2CCN(Cc3cnc4nc(C5CC5)c(=O)[nH]c4c3)CC2)cn1 [Compound 64] cannot be ordered by IC50: ≤ 10 nM for the first, ≤ 10 nM for the second.

CCc1nc2ncc(CN3CCN(c4ccc(C(=O)NC5CC5)nc4F)CC3)cc2[nH]c1=O [Compound 27] and CCc1nc2ncc(CN3CCN(c4ccc(C(=O)NC5CC5)nc4C(F)F)CC3)cc2[nH]c1=O [Compound 28] fall in the same range of IC50: 10 to 50 nM for the first, 10 to 50 nM for the second.

CCc1cc2ncc(CN3CCN(c4cnc(C(=O)NC)cn4)CC3)cc2[nH]c1=O [Compound 29] and CCc1cc2ncc(CN3CCN(c4cnc(C(=O)NC5CC5)cn4)CC3)cc2[nH]c1=O [Compound 31] fall in the same range of IC50: 10 to 50 nM for the first, 10 to 50 nM for the second.

CCc1cc2ncc(CN3CCN(c4ccc(C(=O)NC)nn4)CC3)cc2[nH]c1=O [Compound 30] and CCc1cc2ncc(CN3CCN(c4ccc(C(=O)NC5CC5)nn4)CC3)cc2[nH]c1=O [Compound 33] cannot be ordered by IC50: 10 to 50 nM for the first, ≤ 10 nM for the second.

CCc1cc2ncc(C(C)N3CCN(c4cnc(C(=O)NC5CC5)nc4)CC3)cc2[nH]c1=O (stereo not drawn) [Compound 35] and CNC(=O)c1ccc(N2CCN(C(C)c3cnc4cc(C5CC5)c(=O)[nH]c4c3)CC2)cn1 (stereo not drawn) [Compound 68] cannot be ordered by IC50: ≤ 10 nM for the first, ≤ 10 nM for the second.

CCc1cc2ncc(CN3CCN(c4cnc(C(=O)NC5CC5)nc4F)CC3)cc2[nH]c1=O [Compound 36] and CCc1cc2ncc(CN3CCN(c4cnc(C(=O)NC5CC(F)C5)cn4)CC3)cc2[nH]c1=O (stereo not drawn) [Compound 38] cannot be ordered by IC50: ≤ 10 nM for the first, 10 to 50 nM for the second.

CCc1nc(C(=O)NC)ccc1N1CCN(C(C)c2cnc3cc(CC)c(=O)[nH]c3c2)CC1 (stereo not drawn) [Compound 40] and CCc1cc2ncc(C(C)N3CCN(c4ccc(C(=O)NC)nc4F)CC3)cc2[nH]c1=O (stereo not drawn) [Compound 41] fall in the same range of IC50: 10 to 50 nM for the first, 10 to 50 nM for the second.

CCc1cc2ncc(C(C)N3CCN(c4ccc(C(=O)NC)nc4C(F)F)CC3)cc2[nH]c1=O (stereo not drawn) [Compound 43] and CCc1cc2ncc(CN3CCN(c4ccc(C(=O)NC)nc4C(F)F)CC3)nc2[nH]c1=O [Compound 50] cannot be ordered by IC50: ≤ 10 nM for the first, ≤ 10 nM for the second.

CCc1cc2ncc(CN3CCN(c4ccc(C(=O)NC)nc4)CC3)nc2[nH]c1=O [Compound 44] and CCc1cc2ncc(CN3CCN(c4ccc(C(=O)NC5CC5)nc4)CC3)nc2[nH]c1=O [Compound 49] cannot be ordered by IC50: ≤ 10 nM for the first, ≤ 10 nM for the second.

CCc1cc2ccc(CN3CCN(c4ccc(C(=O)NC)nc4)CC3)nc2[nH]c1=O [Compound 45] and CCc1cc2ccc(CN3CCN(c4ccc(C(=O)NC5CC5)nc4)CC3)nc2[nH]c1=O [Compound 52] cannot be ordered by IC50: ≤ 10 nM for the first, 10 to 50 nM for the second.

CCc1nc2ccc(CN3CCN(c4ccc(C(=O)NC)nc4C)CC3)nc2[nH]c1=O [Compound 47] and CCc1nc2ccc(CN3CCN(c4ccc(C(=O)NC)nc4F)CC3)nc2[nH]c1=O [Compound 48] cannot be ordered by IC50: ≤ 10 nM for the first, ≤ 10 nM for the second.

CCc1cc2ncc(CN3CCN(c4ccc(C(=O)NC)nc4F)CC3)nc2[nH]c1=O [Compound 51] and CCc1cc2ccc(CN3CCN(c4ccc(C(=O)NC)nc4F)CC3)nc2[nH]c1=O [Compound 54] cannot be ordered by IC50: 10 to 50 nM for the first, ≤ 10 nM for the second.

CCc1cc2ccc(CN3CCN(c4ccc(C(=O)NC)nc4C(F)F)CC3)nc2[nH]c1=O [Compound 53] and CCC1Oc2ncc(CN3CCN(c4ccc(C(=O)NC)nc4F)CC3)cc2NC1=O (stereo not drawn) [Compound 56] cannot be ordered by IC50: 10 to 50 nM for the first, ≤ 10 nM for the second.

CCC1Oc2ncc(CN3CCN(c4ccc(C(=O)NC5CC5)nc4)CC3)cc2NC1=O (stereo not drawn) [Compound 55] and CCC1Cc2ncc(CN3CCN(c4ccc(C(=O)NC5CC5)nc4)CC3)cc2NC1=O (stereo not drawn) [Compound 60] fall in the same range of IC50: 10 to 50 nM for the first, 10 to 50 nM for the second.

CCC1Nc2ncc(CN3CCN(c4ccc(C(=O)NC)nc4)CC3)cc2NC1=O (stereo not drawn) [Compound 57] and CCC1C(=O)Nc2cc(CN3CCN(c4ccc(C(=O)NC)nc4)CC3)cnc2N1C (stereo not drawn) [Compound 58] cannot be ordered by IC50: ≤ 10 nM for the first, ≤ 10 nM for the second.

CCC1C(=O)Nc2cc(CN3CCN(c4ccc(C(=O)NC5CC5)nc4)CC3)cnc2N1C (stereo not drawn) [Compound 59] and O=C(NC1CC1)c1ccc(N2CCN(Cc3cnc4cc(C5CC5)c(=O)[nH]c4c3)CC2)cn1 [Compound 62] fall in the same range of IC50: 10 to 50 nM for the first, 10 to 50 nM for the second.

CCC1C(=O)Nc2cc(CN3CCN(c4ccc(C(=O)NC)nc4F)CC3)cnc2C1(C)C (stereo not drawn) [Compound 61] and CNC(=O)c1ccc(N2CCN(Cc3cnc4cc(C5CC5)c(=O)[nH]c4c3)CC2)nn1 [Compound 67] cannot be ordered by IC50: ≤ 10 nM for the first, ≤ 10 nM for the second.

O=C(NC1CC1)c1ccc(N2CCN(Cc3ccc4nc(C5CC5)c(=O)[nH]c4c3)CC2)cn1 [Compound 63] and CNC(=O)c1cnc(N2CCN(Cc3cnc4cc(C5CC5)c(=O)[nH]c4c3)CC2)cn1 [Compound 65] cannot be ordered by IC50: ≤ 10 nM for the first, 10 to 50 nM for the second.

With CNC(=O)c1ncc(N2CCN(Cc3cnc4cc(C5CC5)c(=O)[nH]c4c3)CC2)cn1 [Compound 66] the IC50 was 10 to 50 nM.

Same assay, conditions: numeric values; read-out: Inhibitory activity against PARP-1 (IC50)

In the case of CCC1Oc2ncc(CN3CCN(c4ccc(C(=O)NC)nc4)CC3)cc2NC1=O (stereo not drawn) [Compound 5], the IC50 is reported as 1.7 nM.
